Tests used:
[1] = Selectivity of guest-induced changes in membrane potential at pH 5.0 for PVC matrix liquid membranes incorporated with o-Tolyloxy-acetic acid decyl ester polymer; type: ADME
[2] = Selectivity of guest-induced changes in membrane potential at pH 5.0 for PVC matrix liquid membrane without any host; type: ADME
[3] = Partition coefficient (logP); type: physicochemical; conditions: octanol/water
[4] = Selectivity of guest-induced changes in membrane potential at pH 5.0 for PVC matrix liquid membranes incorporated with (2-Butoxy-5-tert-butyl-3-methyl-phenyl)-methanol polymer; type: ADME
[5] = Selectivity of guest-induced changes in membrane potential at pH 5.0 for PVC matrix liquid membranes incorporated with o-Tolyloxy-acetic acid ethyl ester polymer; type: ADME
[6] = Selectivity of guest-induced changes in membrane potential at pH 5.0 for PVC matrix liquid membranes incorporated with 6,7,9,10,17,18,20,21-Octahydro-5,8,11,16,19,22-hexaoxa-dibenzo[a,j]cyclooctadecene; type: ADME
[7] = Selectivity of guest-induced changes in membrane potential(Kpot A,B) at pH 5.0 for PVC matrix liquid membranes incorporated with 6,7,9,10,17,18,20,21-Octahydro-5,8,11,16,19,22-hexaoxa-dibenzo[a,j]cyclooctadecene; type: ADME

SMILES | Kpot A,B [1] | Kpot A,B [2] | logP [3] | Kpot A,B [4] | Kpot A,B [5] | Kpot A,B [6] | Kpot A,B [7]
CCCCCCCCN | 2.58 | 1.68 | 2.93 | 2.01 | 3.52 | 19 | 
NC12CC3CC(CC(C3)C1)C2 [AMANTADINE] | < 0.01 | 1.2 | 1.77 | 1.85 | < 0.01 | 14.8 | 
NC[C@H](O)c1ccc(O)c(O)c1 [NOREPINEPHRINE] |  |  | 0.82 |  |  |  | 
CC(C)(C)N [TERT-BUTYLAMINE] | < 0.01 | 0.56 | 0.72 | 0.31 | < 0.01 | 0.4 | 
NCCc1ccc(O)c(O)c1 [DOPAMINE] | 1 | 1 | 0.82 | 1 | 1 |  | 
NCCc1ccccc1 [PHENETHYLAMINE] | 1 | 1 | 1.58 | 1 | 1 | 1 | 
CNC[C@H](O)c1ccc(O)c(O)c1 [EPINEPHRINE] | 0.089 | 0.65 | 0.59 | < 0.01 | 0.09 |  | 
NCc1ccccc1 [BENZYLAMINE] | 0.15 | 0.78 |  | 0.45 | 0.15 |  | 0.9
